Source: the supplement of paper PMC10307832

What was measured:
Assay in all cases: relative viability (nuclei count vs DMSO), 5 days (fraction); higher = more cells survive
[1] = compound: C[C@]12O[C@H](C[C@]1(O)CO)n1c3ccccc3c3c4c(c5c6ccccc6n2c5c31)CNC4=O [Lestaurtinib] + CC1(C)CCC(c2ccc(Cl)cc2)=C(CN2CCN(c3ccc(C(=O)NS(=O)(=O)c4ccc(N[C@H](CCN5CCOCC5)CSc5ccccc5)c(S(=O)(=O)C(F)(F)F)c4)cc3)CC2)C1 [Navitoclax] (partner 0.5 µM)
Outline: (§1)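 Values are medians from duplicate plates. Each reflects relative viability, defined as the nuclei count of treated wells over that of vehicle wells. Lung cancer cell lines in 1536-well plates were pin-tool dosed one day after seeding with one drug alone or with a fixed anchor-drug dose plus five library-drug doses (not always all listed) in √10 steps, then fixed, stained and imaged at 4× after 5 days.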

TPCA-1 + Tozasertib = compound: C1=CC(=CC=C1C2=CC(=C(S2)NC(=O)N)C(=O)N)F [TPCA-1] + Cc1cc(Nc2cc(N3CCN(C)CC3)nc(Sc3ccc(NC(=O)C4CC4)cc3)n2)n[nH]1 [Tozasertib] (partner 0.1 µM)
Outline: as §1

Lestaurtinib + AZD7762 = compound: C[C@]12O[C@H](C[C@]1(O)CO)n1c3ccccc3c3c4c(c5c6ccccc6n2c5c31)CNC4=O [Lestaurtinib] + NC(=O)Nc1cc(-c2cccc(F)c2)sc1C(=O)N[C@H]1CCCNC1 [AZD7762] (partner 0.2 µM)
Outline: as §1

[2] = compound: C1/C(=C\C2=CC=CS2)/C(=O)/C(=C/C3=CC=CS3)/C1 + Cc1nc(NC(=O)N2CCC[C@H]2C(N)=O)sc1-c1ccnc(C(C)(C)C(F)(F)F)c1 [Alpelisib] (partner 2 µM)
Outline: as §1

Cell Line	relative viability ([1]; first compound 0.005 µM)	relative viability ([1]; first compound 0.01581 µM)	relative viability ([1]; first compound 0.05 µM)	relative viability ([1]; first compound 0.1581 µM)	relative viability ([1]; first compound 0.5 µM)	relative viability (TPCA-1 + Tozasertib; first compound 0.04 µM)	relative viability (TPCA-1 + Tozasertib; first compound 0.1265 µM)	relative viability (TPCA-1 + Tozasertib; first compound 0.4 µM)	relative viability (TPCA-1 + Tozasertib; first compound 1.265 µM)	relative viability (TPCA-1 + Tozasertib; first compound 4 µM)	relative viability (Lestaurtinib + AZD7762; first compound 0.005 µM)	relative viability (Lestaurtinib + AZD7762; first compound 0.01581 µM)	relative viability (Lestaurtinib + AZD7762; first compound 0.05 µM)	relative viability (Lestaurtinib + AZD7762; first compound 0.5 µM)	relative viability ([2]; first compound 0.2 µM)	relative viability ([2]; first compound 0.6325 µM)	relative viability ([2]; first compound 2 µM)	relative viability ([2]; first compound 6.325 µM)	relative viability ([2]; first compound 20 µM)	relative viability (Lestaurtinib + AZD7762; first compound 0.1581 µM)
NCI-H727	0.502	0.478	0.489	0.332	0.185	0.558	0.719	0.693	0.661	0.492	0.564	0.633	0.522	0.452	0.578	0.532	0.616	0.507	0.567	–
HARA	1.15	1.18	1.21	1.07	0.196	0.136	0.118	0.0913	0.0917	0.0916	0.287	0.392	0.282	0.307	0.802	0.78	0.885	0.598	0.861	0.294
NCI-H2228	0.985	1.29	0.839	0.554	0.162	0.299	0.178	0.285	0.232	0.108	–	–	–	–	0.787	0.692	0.745	0.619	0.869	–
LCLC-97TM1	0.636	0.564	0.246	0.14	0.249	0.242	0.261	0.223	0.185	0.117	0.167	0.279	0.166	0.114	0.255	0.225	0.272	0.212	0.248	0.175
LC-2-ad	0.344	0.402	0.201	0.137	0.107	0.514	0.41	0.469	0.459	0.315	0.892	0.908	0.558	0.225	0.961	0.956	0.942	0.702	0.824	0.409
SK-LU-1	0.822	0.736	0.509	0.292	0.173	0.333	0.297	0.309	0.253	0.248	–	–	–	–	1.18	1.07	1.11	0.817	1.06	–
EKVX	1.03	0.889	0.965	0.929	0.45	0.387	0.332	0.428	0.354	0.284	0.718	–	0.643	0.546	0.878	0.85	0.992	0.626	0.855	0.755
HCC-827	1.07	1.01	0.98	0.847	0.604	0.472	0.42	0.389	0.443	0.272	0.198	0.196	0.219	0.18	0.903	0.924	1.02	0.935	0.98	0.189
NCI-H650	–	–	–	–	–	0.707	0.708	0.734	0.546	0.256	0.939	1.07	0.706	0.302	1.2	1.19	1.19	0.935	1.05	0.687
CAL-12T	1.25	1.45	1.08	1.2	0.686	0.327	0.299	0.257	0.236	0.206	0.573	0.813	0.557	0.54	1.33	1.15	0.95	0.856	1.13	0.599
NCI-H2342	–	–	–	–	–	0.437	0.438	0.499	0.617	0.391	0.473	0.51	0.469	0.407	–	–	–	–	–	0.583
SW 900	–	–	–	–	–	0.612	0.556	0.56	0.485	0.245	0.632	0.561	0.555	0.614	–	–	–	–	–	0.702
IA-LM	0.887	0.994	0.817	0.85	0.236	–	–	–	–	–	–	–	–	–	0.728	0.746	0.651	0.679	0.768	–
EPLC-272H	1.29	0.924	0.6	0.643	0.689	0.652	0.277	0.31	0.442	0.251	0.153	0.219	0.119	0.27	1.1	0.881	1.05	0.831	0.841	0.225
A-427	1.04	0.858	0.914	0.455	0.329	0.231	0.211	0.192	0.161	0.147	0.712	0.755	0.645	0.215	1.12	1.06	1.18	1.04	1.01	0.433
NCI-H647	1.08	0.945	0.572	0.465	0.116	0.262	0.198	0.348	0.129	0.164	0.307	0.756	0.275	0.0697	1.14	1.32	1.08	1	1.13	0.165
NCI-H1975	1.25	1.23	1.03	0.666	0.473	0.796	0.697	0.737	0.407	0.312	0.806	0.86	0.693	0.511	0.736	0.627	0.617	0.592	0.62	0.745
NCI-H358	–	–	–	–	–	0.126	0.113	0.108	0.105	0.0839	0.485	0.413	0.432	0.253	1.11	0.799	0.861	0.668	0.88	0.298
